Measured values published in patent US12590086B2, “3-((1H-pyrazol-4-yl)methyl)-6′-(phenyl)-2H-(1,2′-bipyridin)-2-one derivatives and related compounds as GPR139 antagonists for use in a method of treatment of e.g. depression” (TAKEDA PHARMACEUTICAL COMPANY LIMITED, priority 2020, dated 2026).

biological target: T1, human GPR139 (Homo sapiens, UniProt Q6DWJ6); assay: Inhibition rate of the amount of IP1 in GPR139-expressed CHO cells (inverse agonist assay, IP-ONE HTRF); assay type: cell-based; conditions: 30 μM compound; CHO-TREx cells expressing human GPR139; vehicle set to 0%, IP1 concentration 0 set to 100%; read-out: inhibition rate of the amount of IP1
T1 construct: expressed in transfected cells; host or cells: CHO-TREx (Life Technologies) cells, expression induced with doxycycline
T1 sequence (Q6DWJ6 1-353): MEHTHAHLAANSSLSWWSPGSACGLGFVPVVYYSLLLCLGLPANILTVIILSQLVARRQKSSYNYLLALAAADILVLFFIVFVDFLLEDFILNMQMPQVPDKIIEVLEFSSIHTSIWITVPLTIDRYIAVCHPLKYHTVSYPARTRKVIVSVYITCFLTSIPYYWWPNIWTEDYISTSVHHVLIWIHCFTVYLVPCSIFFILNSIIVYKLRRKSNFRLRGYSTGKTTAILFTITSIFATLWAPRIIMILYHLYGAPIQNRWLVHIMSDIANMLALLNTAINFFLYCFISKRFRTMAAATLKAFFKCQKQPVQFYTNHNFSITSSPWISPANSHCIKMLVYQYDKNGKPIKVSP
Experimental: Measurement of the inhibition rate of the amount of IP1 in 30 µM of the compound of Reference Example 1 in GPR139-expressed CHO cells
Changes in the amount of IP1 in GPR139-expressed CHO cells were measured in order to evaluate the activity of the compound via GPR139. GPR139 is a Gq-coupled receptor which varies intracellular calcium (Liu C et al., Mol Pharmacol. 2015 November; 88(5):911-25), so the amount of IP1, which is a stable metabolite of the second messenger IP3, changes due to activity regulation of GPR139. GPR139 is considered to be […] when expressed recombinantly in mammal cells, so a compound having a GPR139 receptor inverse agonist action is expected to reduce the amount of IP1 production.
The measurement of IP1 was made using an IP-ONE HTFR assay kit (cis-bio) and CHO-TREx (Life Technologies) cells stably transfected with GPR139. The CHO-TREx cells expressed human GPR139 with a tetracycline-inducing element. The cells were cultured in a medium containing F12K and 10% tetracycline-free FBS, and the expression of human GPR139 was induced over the course of 17 hours under conditions of 37° C. and 5% CO2 in the presence of 2 μg/mL of doxycycline (Clontech, 631311) in the growth medium on the day before assay. On the day of the test, after the cells were washed with 10 mL of PBS, the cells were detached with TrypLE Express (Life Technologies) and centrifuged at 1,000 rpm to form pellets, and a cell suspension was then prepared using a stimulation buffer (cis-bio, included in the IP-ONE HTRF assay kit).
The compound was diluted with the stimulation buffer, and 4 μL was added to a 384-well white assay plate (Greiner). The cell suspension was added so that there were 2000 cells per well, and the assay plate was left to stand for 40 minutes at 37° C. Equal amounts of iP1-d2 and Ab-Crp solutions (both available from cis-bio, included in the IP-ONE HTRF assay kit) prepared with a lysis buffer (cis-bio, included in the IP-ONE HTRF assay kit) were mixed, and 4 μL was added to the assay plate and left to stand for one hour at room temperature. After the fluorescence strengths of two wavelengths were measured by the HTRF settings of Envision (PerkinElmer), the value of Ratio=((Signal 665 nm)/(Signal 615 nm))×10000 was calculated.
Measurement of the Inhibition Rate of the Amount of IP1 in GPR139-Expressed CHO Cells (Inverse Agonist Assay)
The activities of the compounds of Examples 20 to 33 were expressed as relative values in Table 2 by measuring the inhibition rate of the amount of IP1 with the same method as in Test Example 1 and defining the inhibition rate of the amount of IP1 of the compound of Reference Example 1 in Test Example 1 as 100%.

Row | SMILES | inhibition at 30 µM [%]
1 | CCn1cc(Cn2ccn(-c3cc(N4CCO[C@H](C)C4)cc(C(F)(F)F)c3F)c2=O)cn1 [Reference Example 1, 1-[(1-Ethyl-1H-pyrazole-4-yl)methyl]-3-{2-fluoro-5-[(2R)-2-methylmorpholine-4-yl]-3-(trifluoromethyl)phenyl}-1,3-dihydro-2H-imidazole-2-one, reference compound] | 84

same assay, conditions: relative value; inhibition rate of Reference Example 1 in Test Example 1 defined as 100%; GPR139-expressed CHO cells; read-out: IP1 Inhibition Rate at 30 μM

Row | SMILES | inhibition at 30 µM [%]
2 | CCn1cc(Cc2cc(C)cn(-c3cc(N4CCO[C@H](C)C4)cc(C4CC4)c3F)c2=O)cn1 [Example 32, 1-{3-cyclopropyl-2-fluoro-5-[(2R)-2-methylmorpholin-4-yl]phenyl}-3-[(1-ethyl-1H-pyrazol-4-yl)methyl]-5-methylpyridin-2(1H)-one] | 99
3 | CCn1cc(Cc2cccn(-c3cc(N4CCO[C@H](C)C4)cc(C4CC4)c3F)c2=O)cn1 [Example 20, 1-{3-cyclopropyl-2-fluoro-5-[(2R)-2-methylmorpholin-4-yl]phenyl}-3-[(1-ethyl-1H-pyrazol-4-yl)methyl]pyridin-2(1H)-one] | 96
4 | CCn1cc(Cc2cccn(-c3cc(N4CCO[C@H](C)C4)cc(OC(F)(F)F)c3F)c2=O)cn1 [Example 24, 3-[(1-ethyl-1H-pyrazol-4-yl)methyl]-1-{2-fluoro-5-[(2R)-2-methylmorpholin-4-yl]-3-(trifluoromethoxy)phenyl}pyridin-2(1H)-one] | 98
5 | CCn1cc(Cc2cccn(-c3cc(N4CCOC(C)(C)C4)cc(C4CC4)c3F)c2=O)cn1 [Example 21, 1-[3-cyclopropyl-5-(2,2-dimethylmorpholin-4-yl)-2-fluorophenyl]-3-[(1-ethyl-1H-pyrazol-4-yl)methyl]pyridin-2(1H)-one] | 96
6 | CCn1cc(Cc2c(F)ccn(-c3cc(N4CCO[C@H](C)C4)cc(C4CC4)c3F)c2=O)cn1 [Example 26, 1-{3-cyclopropyl-2-fluoro-5-[(2R)-2-methylmorpholin-4-yl]phenyl}-3-[(1-ethyl-1H-pyrazol-4-yl)methyl]-4-fluoropyridin-2(1H)-one] | 97
7 | CC(C)n1cc(Cc2cccn(-c3cc(N4CCO[C@H](C)C4)cc(C4CC4)c3F)c2=O)cn1 [Example 25, 1-{3-cyclopropyl-2-fluoro-5-[(2R)-2-methylmorpholin-4-yl]phenyl}-3-{[1-(propan-2-yl)-1H-pyrazol-4-yl]methyl}pyridin-2(1H)-one] | 95
8 | CCn1cc(Cc2cccn(-c3cc(N4CCO[C@H](C)C4)cc(CC(F)(F)F)c3F)c2=O)cn1 [Example 28, 3-[(1-ethyl-1H-pyrazol-4-yl)methyl]-1-{2-fluoro-5-[(2R)-2-methylmorpholin-4-yl]-3-(2,2,2-trifluoroethyl)phenyl}pyridin-2(1H)-one] | 100
9 | CCn1cc(Cc2c(C)ccn(-c3cc(N4CCO[C@H](C)C4)cc(C4CC4)c3F)c2=O)cn1 [Example 33, 1-{3-cyclopropyl-2-fluoro-5-[(2R)-2-methylmorpholin-4-yl]phenyl}-3-[(1-ethyl-1H-pyrazol-4-yl)methyl]-4-methylpyridin-2(1H)-one] | 96
10 | CCn1cc(Cc2cccn(-c3cc(OC4CCOCC4)cc(C4CC4)c3F)c2=O)cn1 [Example 22, 1-{3-cyclopropyl-2-fluoro-5-[(oxan-4-yl)oxy]phenyl}-3-[(1-ethyl-1H-pyrazol-4-yl)methyl]pyridin-2(1H)-one] | 98
11 | CCn1cc(Cc2cccn(-c3cc(OC4CCOCC4)cc(Br)c3F)c2=O)cn1 [Example 23, 1-{3-bromo-2-fluoro-5-[(oxan-4-yl)oxy]phenyl}-3-[(1-ethyl-1H-pyrazol-4-yl)methyl]pyridin-2(1H)-one] | 100
12 | CCn1cc(Cc2ccc(F)n(-c3cc(C4CC4)cc(N4CCO[C@H](C)C4)c3)c2=O)cn1 [Example 31, 1-{3-cyclopropyl-5-[(2R)-2-methylmorpholin-4-yl]phenyl}-3-[(1-ethyl-1H-pyrazol-4-yl)methyl]-6-fluoropyridin-2(1H)-one] | 100
13 | CCn1cc(Cc2cccn(-c3cc(N4CCC(F)(F)CC4)cc(C4CC4(F)F)c3F)c2=O)cn1 (stereo not drawn) [Example 30, 1-[3-(2,2-difluorocyclopropyl)-5-(4,4-difluoropiperidin-1-yl)-2-fluorophenyl]-3-[(1-ethyl-1H-pyrazol-4-yl)methyl]pyridin-2(1H)-one] | 97
14 | CCn1cc(Cc2ccc(C)n(-c3cc(C4CC4)cc(N4CCO[C@H](C)C4)c3)c2=O)cn1 [Example 29, 1-{3-cyclopropyl-5-[(2R)-2-methylmorpholin-4-yl]phenyl}-3-[(1-ethyl-1H-pyrazol-4-yl)methyl]-6-methylpyridin-2(1H)-one] | 102
15 | CCn1cc(Cc2cccn(-c3cc(N4CCO[C@H](C)C4)cc(C(C)C)c3F)c2=O)cn1 [Example 27, 3-[(1-ethyl-1H-pyrazol-4-yl)methyl]-1-{2-fluoro-5-[(2R)-2-methylmorpholin-4-yl]-3-(propan-2-yl)phenyl}pyridin-2(1H)-one] | 96
